Paper PMC4351682, “Formononetin inhibits enterovirus 71 replication by regulating COX- 2/PGE2 expression” (Virology Journal, 2015)

What was measured:
EV71 strain BrCr = experiment: CPE inhibition assay, EV71 strain BrCr in Vero cells; assay type: cell-based, enterovirus 71; settings: Enterovirus A
Experimental: (§1) The anti-EV71 activity of formononetin was assayed by CPE inhibition method. Briefly, cells (3 × 10^4 cells/well) were plated into 96-well culture plates for incubation of 24 h. The medium was then removed and cells were infected with EV71 of 80 pfu/well. Then, various concentrations of formononetin were supplemented for incubation of another 48 h. The IC50 defined as the minimal concentration of inhibitor required to inhibit 50% of CPE was determined by Reed & Muench method. The selectivity index (SI) was calculated as the ratio of TC50/IC50 [19].

SK-N-SH cells = experiment: Cytotoxicity assay (MTS) in SK-N-SH cells; assay type: cell-based; settings: 3 days
Experimental: Cytotoxic effect of formononetin on Vero or SK-N-SH cells was assayed by MTS (promega) assay. Briefly, cells (3 × 10^4 cells/well) were seeded into 96-well culture plates and were incubated overnight. Then, the medium was removed and different concentrations of formononetin were applied in triplicate. After 3 days’ incubation, the cytotoxicity of formononetin was determined by MTS assay. The TC50 was defined as the concentration that inhibits 50% cellular growth in comparison with the controls and the TC0 was defined as the maximal non-toxicity dose.

EV71 strain JS-52 = experiment: CPE inhibition assay, EV71 strain JS-52 in Vero cells; assay type: cell-based, enterovirus 71; settings: Enterovirus A, EV71 JS-52, Vero cells
Experimental: as §1

EV71 = experiment: Antiviral activity against EV71, comparison of pirodavir and pleconaril (data not shown); assay type: cell-based, enterovirus 71

Structure (SMILES)	IC50 (EV71 strain BrCr)	TC0 (maximal non-toxicity dose) (SK-N-SH cells)	TC50 (50% toxicity concentration) (SK-N-SH cells)	TC0 (maximal non-toxicity dose) (SK-N-SH cells; listed as formononetin)	TC50 (50% toxicity concentration) (SK-N-SH cells; listed as formononetin)	IC50 (EV71 strain JS-52)	Antiviral activity against EV71 compared with pleconaril (EV71)
COc1ccc(-c2coc3cc(O)ccc3c2=O)cc1 [Formononetin]	6.47 ± 4.4 µM	55.92 ± 0 µmol/L	198.80 ± 6.02 µM	55.92 µmol/L	198.80 µM	17.9 ± 8.51 µM	–
CCOC(=O)c1ccc(OCCC2CCN(c3ccc(C)nn3)CC2)cc1 [Pirodavir, reference compound]	–	–	–	–	–	–	better than pleconaril
